Experimental data as given in patent US6995159B2, “5-HT receptor ligands and uses thereof” (Pfizer Inc., priority 2001, dated 2006).
Structures can show the parent of a compound that is named as a salt.

Experiments:
5-HT2a receptor = experiment: Functional assay (FLIPR calcium, Fluo 4-AM) in 5-HT2a expressed cells; type: cell-based; details: 5-HT2a expressed NIH 3T3 cells; for 5-HT2a functional activity: at 10 μM
Protocol: (§1) Swiss 3T3 cells expressing r-5HT2C, r-5HT2A, h-5HT2C or h-5HT2A receptors are seeded at a density of 12,500 cells/well in 384 well black/clear collagen-coated plates. Forty eight (48) hrs later the cells are loaded with the calcium sensitive dye, Fluo 4-AM (4 μM dissolved in DMSO containing pluronic acid) in serum free DMEM in the presence of probenicid (2.5 mM) for 75 minutes at 37° C. in a CO2 incubator. Unincorporated dye is removed by washing 3 times with a HEPES-buffered saline containing probenicid (2.5 mM) using a Skatron™ cell washer (final volume 30 μL).
(§2) Plates are added to a fluorometric imaging plate reader (FLIPR 384 available from Molecular Devices Corporation) individually and fluorescence measurements are taken every 2 seconds over an 85 seconds period. Test compound additions are made simultaneously to all 384 wells after 20 seconds of baseline recording. Concentration-response curves are generated using Graphpad Prism™ (available from GraphPad Software, Inc., San Diego, Calif.) and agonist efficacies are generated as % of the response to 10 μM 5-HT (considered as 100%). Estimation of antagonist potencies (functional Kis) are generated by measuring inhibition of the test compound response to 5-HT (10 nM for 5-HT2C and 50 nM for 5-HT2A) and applying the Cheng Prusoff equation.
The functional data for the compounds listed in the Examples above utilizing the 5-HT2a expressed NIH 3T3 cells is summarized below.

5-HT2c receptor = experiment: Functional assay (FLIPR calcium, Fluo 4-AM) in 5-HT2c expressed cells; type: cell-based; details: 5-HT2c expressed NIH 3T3 cells; for 5-HT2c functional activity: at 10 μM
Protocol: as §1, §2
The functional data for the compounds listed in the Examples above utilizing the 5-HT2c expressed NIH 3T3 cells is summarized below.

SMILES | functional mode at 5-HT2a (partial agonist / full antagonist) (5-HT2a receptor) | other results
C[C@H](Oc1nccc(N2CCNCC2)n1)c1ccccc1 [Example 1-AG, 2-[(1S)-Phenyl-ethoxy]-4-piperazin-1-yl-pyrimidine] |  | 5-HT2a functional activity (5-HT2a receptor): no functional activity
COc1cccc(COc2nc(C)cc(N3CCNCC3)n2)c1 [Example 1-AL, 2-(3-Methoxy-benzyloxy)-4-methyl-6-piperazin-1-yl-pyrimidine] | full antagonists | 5-HT2a functional activity (5-HT2a receptor): no functional activity
Cc1cc(N2CCNCC2)nc(OCc2cccc(Oc3ccccc3)c2)n1 [Example 1-D, 4-Methyl-2-(3-phenoxy-benzyloxy)-6-piperazin-1-yl-pyrimidine] |  | 5-HT2a functional activity (5-HT2a receptor): no functional activity
Cc1cc(N2CCNCC2)nc(OCc2cccc(OC(F)(F)F)c2)n1 [Example 1-F, 4-Methyl-6-piperazin-1-yl-2-(3-trifluoromethoxy-benzyloxy)-pyrimidine] |  | 5-HT2a functional activity (5-HT2a receptor): no functional activity
Cl.Clc1cccc(Cl)c1COc1nccc(N2CCNCC2)n1 [Example 1-FF, 2-(2,6-Dichloro-benzyloxy)-4-piperazin-1-yl-pyrimidine, hydrochloride] | full antagonists | 
Cl.Clc1cccc(COc2nccc(N3CCNCC3)n2)c1Cl [Example 1-GG, 2-(2,3-Dichloro-benzyloxy)-4-piperazin-1-yl-pyrimidine, hydrochloride] | full antagonists | 
Cl.Clc1cc(Cl)cc(COc2nccc(N3CCNCC3)n2)c1 [Example 1-HH, 2-(3,5-Dichloro-benzyloxy)-4-piperazin-1-yl-pyrimidine, hydrochloride] | full antagonists | 
Cl.FC(F)(F)Oc1ccccc1COc1nccc(N2CCNCC2)n1 [Example 1-II, 4-Piperazin-1-yl-2-(2-trifluoromethoxy-benzyloxy)-pyrimidine, hydrochloride] | full antagonists | 
C[C@@H]1CN(c2ccnc(OCc3cccc(Cl)c3)n2)CCN1 [Example 1-MM, 2-(3-Chloro-benzyloxy)-4-[(3R)-methyl-piperazin-1-yl]pyrimidine] | full antagonists | 
Fc1ccc(C(F)(F)F)c(COc2nccc(N3CCNCC3)n2)c1 [Example 1-PP, 2-(5-Fluoro-2-trifluoromethyl-benzyloxy)-4-piperazin-1-yl-pyrimidine] | full antagonists | functional mode at 5-HT2c (partial agonist / full antagonist) (5-HT2c receptor): full antagonists
FC(F)(F)c1cc(COc2nccc(N3CCNCC3)n2)cc(C(F)(F)F)c1 [Example 1-QQ, 2-(3,5-Bis-trifluoromethyl-benzyloxy)-4-piperazin-1-yl-pyrimidine] |  | 5-HT2c functional activity (5-HT2c receptor): no 5-HT2c functional activity; 5-HT2a functional activity (5-HT2a receptor): no functional activity
Clc1ccc(COc2nccc(N3CCNCC3)n2)cc1Cl [Example 1-S, 2-(3,4-Dichloro-benzyloxy)-4-piperazin-1-yl-pyrimidine] | full antagonists | 
Fc1ccc(COc2nccc(N3CCNCC3)n2)cc1F [Example 1-U, 2-(3,4-Difluoro-benzyloxy)-4-piperazin-1-yl-pyrimidine] | full antagonists | 
C[C@H]1CNCCN1c1ccnc(OCc2cc(Cl)ccc2Cl)n1 [Example 1-VV, 2-(2,5-Dichloro-benzyloxy)-4-[(2S)-methyl-piperazin-1-yl]-pyrimidine] | full antagonists | 
C[C@H]1CNCCN1c1ccnc(OCc2cc(F)ccc2F)n1 [Example 1-WW, 2-(2,5-Difluoro-benzyloxy)-4-[(2S)-methyl-piperazin-1-yl]-pyrimidine] | full antagonists | 
Cl.Fc1cccc(COc2nccc(N3CCNCC3)n2)c1F [Example 1-Y, 2-(2,3-Difluoro-benzyloxy)-4-piperazin-1-yl-pyrimidine, hydrochloride] | full antagonists | 
Fc1cc(COc2nccc(N3CCNCC3)n2)cc(F)c1F [Example 1-YY, 4-Piperazin-1-yl-2-(3,4,5-trifluoro-benzyloxy)-pyrimidine] | full antagonists | 
CC(Oc1ccnc(N2CCNCC2)n1)c1ccc(Cl)cc1 (stereo not shown) [Example 2-D, 4-[1-(4-Chloro-phenyl)-ethoxy]-2-piperazin-1-yl-pyrimidine] |  | 5-HT2c functional activity (5-HT2c receptor): no 5-HT2c functional activity
Fc1ccc(COc2ccnc(N3CCNCC3)n2)cc1 [Example 2-E, 4-(4-Fluoro-benzyloxy)-2-piperazin-1-yl-pyrimidine] | full antagonists | 
Clc1ccc(COc2ccnc(N3CCNCC3)n2)cc1Cl [Example 2-F, 4-(3,4-Dichloro-benzyloxy)-2-piperazin-1-yl-pyrimidine] | full antagonists | functional mode at 5-HT2c (partial agonist / full antagonist) (5-HT2c receptor): full antagonists
Fc1ccc(COc2ccnc(N3CCNCC3)n2)cc1F [Example 2-G, 4-(3,4-Difluoro-benzyloxy)-2-piperazin-1-yl-pyrimidine] | full antagonists | 
Cc1ccc(COc2ccnc(N3CCNCC3)n2)cc1C.Cl [Example 2-H, 4-(3,4-Dimethyl-benzyloxy)-2-piperazin-1-yl-pyrimidine, hydrochloride] | full antagonists | 5-HT2c functional activity (5-HT2c receptor): no 5-HT2c functional activity
Fc1cccc(COc2ccnc(N3CCNCC3)n2)c1F.O=C(O)C(F)(F)F [Example 2-I, 4-(2,3-Difluoro-benzyloxy)-2-piperazin-1-yl-pyrimidine, trifluoroacetate] | full antagonists | 
Cl.c1ccc(CNc2nccc(N3CCNCC3)n2)cc1 [Example 3-D, Benzyl-(4-piperazin-1-yl-pyrimidin-2-yl)-amine, hydrochloride] | full antagonists | 
Cl.Clc1cccc(CNc2ccnc(N3CCNCC3)n2)c1 [Example 4-A, (3-Chloro-benzyl)-(2-piperazin-1-yl-pyrimidin-4-yl)-amine, hydrochloride] | full antagonists | 
Cl.Fc1cccc(CNc2ccnc(N3CCNCC3)n2)c1 [Example 4-B, (3-Fluoro-benzyl)-(2-piperazin-1-yl-pyrimidin-4-yl)-amine, hydrochloride] | full antagonists | 
Fc1cccc(CNc2ccnc(N3CCNCC3)n2)c1.O=C(O)/C=C/C(=O)O [Example 4-C, (3-Fluoro-benzyl)-(2-piperazin-1-yl-pyrimidin-4-yl)-amine, fumarate] | full antagonists | 
Cl.c1ccc(CNc2ccnc(N3CCNCC3)n2)cc1 [Example 4-D, Benzyl-(2-piperazin-1-yl-pyrimidin-4-yl)-amine, hydrochloride] | full antagonists | 
Clc1cccc(COc2nccc(N3CCNCC3)n2)n1 [Example 5-A, 2-(6-Chloro-pyrdin-2-ylmethoxy)-4-piperazin-1-yl-pyrimidine, hydrochloride] | full antagonists | 
